These results are taken from ChEMBL document CHEMBL1201862, “PubChem BioAssay data set” (2004).

Some test systems named below: ACHN; NCI-H226; MOLT-4; T47D; MDA-MB-231; BT-549; SR; DU-145; HT-29; OVCAR-3; SK-OV-3; COLO 205; NCI/ADR-RES; SNB-19; SN12C; NCI-H460; MDA-MB-435; OVCAR-5; UO-31; EKVX.
Assay in all cases: inhibition of tumour cell growth, NCI panel, 48 h

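Cultured in 96-well plates, cells were exposed to test compound for 48 hours across five concentrations. Abbreviation: GI50, concentration required for 50% inhibition of growth.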 Activity calls are given as the source filed them. No stated cut-off is given here; in the data, active = GI50 up to about 1.1 µM and inactive = higher. Some results are limits rather than exact numbers.

As for `N=c1oc2ccc(Cl)cc2cc1C(N)=O`, the GI50 in the assay on ACHN is 24.4 µM (inactive); in the assay with NCI-H226, 28.2 µM (inactive); in the assay with MOLT-4, > 100 µM (inactive); in the assay on T47D, 24.8 µM (inactive); in the assay with MDA-MB-231, 24.4 µM (inactive); in the assay with BT-549, 35.2 µM (inactive). The GI50 in the assay with SR is 65.3 µM (inactive); in the assay on DU-145, 35.9 µM (inactive); in the assay on HT-29, 38.5 µM (inactive); in the assay with OVCAR-3, 18.2 µM (inactive); with SK-OV-3, > 100 µM (inactive); in the assay on COLO 205 it was 36.6 µM (inactive). Further, the GI50 was 34.4 µM (inactive) in the assay on NCI/ADR-RES; 26.7 µM (inactive) with SNB-19; 18.8 µM (inactive) with SN12C; 30.8 µM (inactive) in the assay on NCI-H460; 31.7 µM (inactive) in the assay with MDA-MB-435; 27 µM (inactive) with OVCAR-5.

Regarding `O=C1c2ccccc2C(=O)N1n1c(Cc2ccccc2)n[nH]c1=O`, the GI50 in the assay on ACHN, with NCI-H226, with MOLT-4, in the assay on T47D, in the assay with MDA-MB-231 and in the assay with BT-549 was > 100 µM (inactive) in each case. The GI50 in the assay on SR, in the assay on DU-145, in the assay with HT-29, with OVCAR-3, in the assay with UO-31 and with COLO 205 was > 100 µM (inactive) each time. Further, the GI50 in the assay on NCI/ADR-RES, in the assay on SNB-19, in the assay on SN12C, with EKVX, in the assay with NCI-H460 and with MDA-MB-435 was > 100 µM (inactive) throughout. Also, in the assay on OVCAR-5, the GI50 is > 100 µM (inactive).

Regarding `N=c1oc2ccccc2cc1-c1nc2ccccc2c(=O)[nH]1`, the GI50 in the assay on ACHN is 22.1 µM (inactive); with NCI-H226, 29.7 µM (inactive); in the assay with MOLT-4, > 100 µM (inactive); in the assay on T47D, > 100 µM (inactive); in the assay on MDA-MB-231, 29.3 µM (inactive); in the assay with BT-549 it was 23.8 µM (inactive). Also, the GI50 in the assay with SR was 42.9 µM (inactive); in the assay with DU-145 it was > 100 µM (inactive); in the assay on HT-29, 39.1 µM (inactive); with SK-OV-3, > 100 µM (inactive); with UO-31 it was 27.1 µM (inactive); in the assay on COLO 205, > 100 µM (inactive). For the same compound, the GI50 is 72.6 µM (inactive) with NCI/ADR-RES; 30.1 µM (inactive) in the assay on SNB-19; > 100 µM (inactive) in the assay with SN12C; 35.6 µM (inactive) with EKVX; 64.7 µM (inactive) in the assay on NCI-H460; > 100 µM (inactive) in the assay on MDA-MB-435. Also, in the assay on OVCAR-5, the GI50 is > 100 µM (inactive).

Take `CC1(C=O)CCC23COC4(CCC5C6(C)CCC(OC7OCC(OC8OC(CO)C(O)C(OC9OC(CO)C(O)C(O)C9O)C8OC8OCC(O)C(O)C8O)C(O)C7OC7OC(CO)C(O)C(O)C7O)C(C)(C)C6CCC5(C)C4(C)CC2O)C3C1` (centres undefined): the GI50 in the assay on ACHN is 1.3 µM (inactive); in the assay with NCI-H226, 1.8 µM (inactive); in the assay with MOLT-4, 0.367 µM (active); in the assay on T47D, 1.61 µM (inactive); in the assay with MDA-MB-231, 0.32 µM (active); in the assay with BT-549 it was 1.57 µM (inactive). For the same compound, the GI50 is 0.132 µM (active) in the assay with SR; 1.46 µM (inactive) in the assay with DU-145; 0.849 µM (active) with HT-29; 1.47 µM (inactive) in the assay with OVCAR-3; 1.28 µM (inactive) in the assay with SK-OV-3; 1.48 µM (inactive) with UO-31. Further, the GI50 in the assay on COLO 205 is 1.3 µM (inactive); in the assay with NCI/ADR-RES, 0.264 µM (active); in the assay with SNB-19, 0.198 µM (active); with EKVX it was 1.5 µM (inactive); with NCI-H460, 1.29 µM (inactive); in the assay with MDA-MB-435 it was 1.48 µM (inactive). Also, the GI50 in the assay on OVCAR-5 was 1.29 µM (inactive).

On to `O=C(CSc1nnc(-c2ccccn2)s1)N/N=C/c1ccc([N+](=O)[O-])cc1`, for which the GI50 in the assay on ACHN is 53.8 µM (inactive); with NCI-H226, > 100 µM (inactive); in the assay with MOLT-4, > 100 µM (inactive); with T47D it was 37.1 µM (inactive); with MDA-MB-231, 15.9 µM (inactive); in the assay with BT-549 it was 56.2 µM (inactive). In addition, the GI50 is > 100 µM (inactive) in the assay on SR; 11.4 µM (inactive) in the assay with DU-145; > 100 µM (inactive) with HT-29; > 100 µM (inactive) with OVCAR-3; 35.2 µM (inactive) with SK-OV-3; < 0.01 µM (active) in the assay on UO-31. In addition, the GI50 in the assay with COLO 205 is > 100 µM (inactive); in the assay on NCI/ADR-RES, > 100 µM (inactive); with SNB-19, 21.9 µM (inactive); with SN12C, 69.8 µM (inactive); with NCI-H460 it was > 100 µM (inactive); with MDA-MB-435, > 100 µM (inactive). In addition, the GI50 in the assay with OVCAR-5 was > 100 µM (inactive).

Regarding `O=C1NC(N2CCCCC2)=N/C1=C\c1ccc(Cl)cc1`, the GI50 with ACHN was 36.4 µM (inactive); in the assay with NCI-H226, 22.3 µM (inactive); in the assay with MOLT-4 it was > 100 µM (inactive); in the assay with T47D it was 41.5 µM (inactive); in the assay with MDA-MB-231 it was 34.1 µM (inactive); in the assay on BT-549, 71.4 µM (inactive). The GI50 is > 100 µM (inactive) in the assay on SR; 44.1 µM (inactive) in the assay with DU-145; 16.6 µM (inactive) in the assay on HT-29; 26.4 µM (inactive) with OVCAR-3; > 100 µM (inactive) in the assay with SK-OV-3; 34.7 µM (inactive) in the assay on UO-31. For the same compound, the GI50 in the assay with COLO 205 is 74.5 µM (inactive); in the assay with NCI/ADR-RES, 22 µM (inactive); in the assay with SNB-19, 37 µM (inactive); with SN12C, 72.6 µM (inactive); in the assay on EKVX, 26.3 µM (inactive); in the assay on MDA-MB-435, 60.4 µM (inactive). Moreover, the GI50 in the assay with OVCAR-5 is > 100 µM (inactive).

With `CC1=C[C@@H](C)C[C@]2(C)CC[C@H](O2)[C@]23CC[C@](C)(C[C@H](O2)[C@@H]2O[C@@](C)(CC2=O)[C@@H](O)[C@H]2CC[C@@]4(CCC[C@@H](O4)[C@H](C)C(=O)O[C@H]4C[C@H]([C@]5(O)OCC[C@H](C)[C@@H]5O)O[C@H]4C=C1)O2)O3`, the GI50 was 0.00473 µM (active) in the assay with ACHN; 0.00157 µM (active) in the assay on NCI-H226; 0.0632 µM (active) in the assay with T47D; 0.00528 µM (active) in the assay on MDA-MB-231; 0.0024 µM (active) in the assay on BT-549; 0.00157 µM (active) in the assay on SR. The GI50 was 0.0601 µM (active) in the assay on DU-145; 0.00226 µM (active) with HT-29; 0.00397 µM (active) in the assay with OVCAR-3; 0.00757 µM (active) with SK-OV-3; 0.00408 µM (active) in the assay with UO-31; 0.00127 µM (active) in the assay with COLO 205. The GI50 in the assay on NCI/ADR-RES is 0.897 µM (active); in the assay on SNB-19, 0.0244 µM (active); in the assay with EKVX it was 0.0113 µM (active); in the assay on NCI-H460, 0.00429 µM (active); in the assay with MDA-MB-435, 0.0371 µM (active); with OVCAR-5, 0.0186 µM (active).

With `O=c1n(Cc2ccccc2)c(=O)n2c(=O)n(Cc3ccccc3)c(=O)n12`, the GI50 in the assay on ACHN, in the assay on NCI-H226, in the assay with T47D, in the assay with MDA-MB-231, in the assay with BT-549 and in the assay on SR was > 100 µM (inactive) each time. For the same compound, the GI50 in the assay on DU-145 was > 100 µM (inactive); in the assay on HT-29, 54.6 µM (inactive); in the assay with SK-OV-3, > 100 µM (inactive); in the assay on UO-31, > 100 µM (inactive); with COLO 205, 38.3 µM (inactive); in the assay with NCI/ADR-RES, > 100 µM (inactive). Moreover, the GI50 with SNB-19, with SN12C, in the assay with NCI-H460 and in the assay on MDA-MB-435 was > 100 µM (inactive) throughout.

Turning to `O=C1CC(=O)NC(NN2C(=O)/C(=C/c3ccc(Cl)cc3)N=C2c2ccccc2)=N1`, the GI50 with ACHN was 17.4 µM (inactive); in the assay with NCI-H226, 16.9 µM (inactive); with MOLT-4, 4.73 µM (inactive); with T47D it was 28.6 µM (inactive); in the assay on MDA-MB-231, 17.9 µM (inactive); in the assay with BT-549, 15.8 µM (inactive). For the same compound, the GI50 in the assay on SR was 4.71 µM (inactive); with DU-145, 30.1 µM (inactive); in the assay with HT-29 it was 16.4 µM (inactive); in the assay with OVCAR-3, 15.9 µM (inactive); with SK-OV-3, 23 µM (inactive); in the assay with UO-31, 16.3 µM (inactive). Further, the GI50 in the assay on COLO 205 was 16.8 µM (inactive); with NCI/ADR-RES it was 14.9 µM (inactive); in the assay on SN12C, 16.8 µM (inactive); with NCI-H460 it was 9.53 µM (inactive); with MDA-MB-435, 15.2 µM (inactive); in the assay with OVCAR-5, 15.1 µM (inactive).

Take `C=CCNC(=O)NC(=O)CSC1=NC(=O)C2(NN1)c1ccccc1-c1ccccc12`: the GI50 in the assay on ACHN, in the assay on NCI-H226, with MOLT-4, with T47D, with MDA-MB-231 and in the assay on BT-549 was > 10 µM (inactive) throughout. For the same compound, the GI50 in the assay on SR was > 10 µM (inactive); in the assay with DU-145 it was > 10 µM (inactive); with HT-29, > 10 µM (inactive); with SK-OV-3, > 10 µM (inactive); with UO-31, 9.62 µM (inactive); in the assay on COLO 205, > 10 µM (inactive). Also, the GI50 in the assay with NCI/ADR-RES, with SNB-19, in the assay with SN12C, with EKVX, in the assay on NCI-H460 and with MDA-MB-435 was > 10 µM (inactive) throughout. In addition, the GI50 in the assay with OVCAR-5 was > 10 µM (inactive).
